Laboratory results reported in patent US6540977B1, “Cyanidin compositions and therapeutic and diagnostic uses therefor” (Medarex, Inc., priority 1996, dated 2003).

Molecular target: T1, human FcγRI (Homo sapiens, UniProt P12314)
T1 construct: expressed in transfected cells; host or cells: mouse IIA1.6 B cells
Experiment: Staining of IIA1.6 B cell transfectants expressing human FcγRI
Assay type: binding
Settings: unconjugated Cy5; FcγRI transfectants vs untransfected IIA1.6
Method: To assess the specificity of binding of PE-Cy5 conjugates to FcγRI, a series of FcR-transfectants, each transfectant engineered to express one FcR molecular type, was tested. Recipient IIA1.6 cells mouse B cells are devoid of IgG receptors; samples were transfected with each of the genes encoding the different human Fc receptors for IgG (FcγRI, CD64; Van Vugt M J, et al., 1996, Blood 87:3593; FcγRIIa, CD32; FcγRIIb1, CD32, Van den Herik-Oudijk I E, et al., 1995, Blood 85:2202) and for IgA receptor FcαR, CD89 (Morton H C, et al., 1995, J Biol Chem 270:29781) derived from the A20 B cell lymphoma (Morton, H C, et al., supra). Transfectants were stained with different PE-Cy5 mAb conjugates (covalently linked to antibodies to CD3, CD4, or CD8). […]
Untransfected IIA1.6 B-cells and these cells transfected with the gene for human FcγRI (see references, supra), 2×10^5 cells in 20 μl per test, were stained for one hour at 4° C. with 10 μl Cy5. […] All fluorescence experiments were performed using band filter gates for excitation and emission wavelengths appropriate for PE-Cy5 described supra, so that diminished activity for Cy5 in comparison with PE and PE-Cy5 is due to comparatively low absorption by Cy5 at 488 nm.

T1 sequence (P12314 16-374): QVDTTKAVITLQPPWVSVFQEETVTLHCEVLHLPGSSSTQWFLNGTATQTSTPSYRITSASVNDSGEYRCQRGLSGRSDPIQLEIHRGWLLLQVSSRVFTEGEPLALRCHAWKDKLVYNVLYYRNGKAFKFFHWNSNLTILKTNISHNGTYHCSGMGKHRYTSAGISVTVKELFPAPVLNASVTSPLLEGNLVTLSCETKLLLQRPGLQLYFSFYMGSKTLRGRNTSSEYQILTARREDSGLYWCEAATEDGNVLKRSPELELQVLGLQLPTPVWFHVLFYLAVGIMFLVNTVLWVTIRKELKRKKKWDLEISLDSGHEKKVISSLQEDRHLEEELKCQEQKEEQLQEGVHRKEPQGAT

5,5′-bis-sulfo-1,1′-(ε-carboxyphenyl)-3,3,3′,3′-tetramethylindodicarbocyanin-disuccinimidyl ester [Cy5]
mean fluorescent intensity of transfectants versus control cells: at least an order of magnitude greater
